This is an account of results in patent US20240209001A1, “HETEROCYCLIC DERIVATIVES AS JANUS KINASE INHIBITORS” (CHIESI FARMACEUTICI S.P. A., priority 2021, published 2024).

The target of assay [1] is JAK 1 (Homo sapiens (Human), UniProt P23458). Kind of assay: Biochemical potency on JAK1, TR-FRET LANCE Ultra kinase assay (compounds 1-92). The settings on record: ATP at Km, read-out: JAK1 inhibitory activity (pIC50 class) (converted). As to the method:
(§1) Biochemical Potency on JAK1, JAK2, JAK3 and Tyk2 Assay Principle The objective of this study was to assess the capability of compounds to inhibit all 4 JAK isoforms activity in a cell-free environment. Assay for JAK 1, JAK 2, JAK 3 and TYK2 were performed by Time-resolved fluorescence resonance energy transfer (TR-FRET) technology. It consists in the interaction of two labelled binding partners detected by the energy transfer from an excited donor to an acceptor dye and measurement of light emission by the acceptor dye. LANCE Ultra kinase assay was used. In presence of JAK 1, JAK 2, JAK 3 and TYK2 kinases and ATP (corresponding to Km), the ULight peptide substrate (LANCE Ulight-JAK-1 ([…]) Peptide, Perkin Elmer, TRF0121) is phosphorylated. It is then captured by Eu-anti-phospho-substrate antibody (LANCE Eu-W1024 Anti-phosphotyrosine (PT66), Perkin Elmer, AD0069), which bring the Eu-chelate donor and ULight acceptor dyes into close proximity. Upon excitation at 320 nm, the Eu-chelate transfers its energy to the ULight dye, resulting in a fluorescent light emission at 665 nm. Compound Testing Serial dilutions of compounds in pure DMSO are prepared from 10 mM DMSO stock solutions. Compounds were tested in 384-well plate for 11 consecutive 5-fold dilutions starting from 20 μM highest concentration (20 μM-[…]). 200 nL of compound were transferred from mother plate to test plate by using Mosquito (TTP labtech). Assay was performed in 384-well Perkin Elmer test plate in 20 μL assay volume (kinase reaction) and 40 μL total volume (stopping reagent and antibody detection reagents). In 10 μL of substrate solution (peptide+ATP) 30/50/20/10 nM of peptide and 20/0.7/0.2/12 μM of ATP were added for JAK 1, JAK 2, JAK 3 and TYK2 respectively. 10 μL of enzyme solution was added to kinase reaction at these concentrations: 0.15/0.083/0.025/0.144 ng/μL of JAK 1, JAK 2, JAK 3 and TYK2 respectively. After shaking and 1.5 h of incubation at r.t., 20 μL of Stop (10 μL EDTA) and Detection mixture (10 μL Europium-anti-phospho antibody, final: 0.5 nM) were added. Reading was performed after 1 h of incubation on a EnVision 2104 reader (Perkin Elmer). Calculation of IC50 data, curves and QC analysis was performed by using Excel tool and GraphPadPrism software, v9. Briefly, individual concentration-effect curves are generated by plotting the logarithm of the tested concentration of tested compounds (X) vs. corresponding percent inhibition values (Y) using least squares (ordinary) fit. Best fit IC50 values are calculated using Log(inhibitor) vs. normalized response-Variable slope equation, where Y=100/(1+10^((Log IC50-X)*HillSlope)). QC criteria parameters (Z', S:B, R2, HillSlope) were checked for every IC50 curve. Calculation of IC50 data, curves and QC analysis were made using Excel tools and GraphPadPrism software. QC criteria parameters: Z'≥0.5, Hill Slope range 0.5 to 5, S:B>2.
For orientation: Time-resolved FRET reads energy transfer from a long-lived donor to a nearby acceptor.

In assay [2] the target is JAK 2 (Homo sapiens (Human), UniProt O60674). The assay can be described thus: Biochemical potency on JAK2, TR-FRET LANCE Ultra kinase assay (compounds 1-92). The settings on record: ATP at Km, read-out: JAK2 inhibitory activity (pIC50 class) (converted). The protocol: as §1
Assay [3] concerns the target JAK 3 (Homo sapiens (Human), UniProt P52333). Kind of assay: Biochemical potency on JAK3, TR-FRET LANCE Ultra kinase assay (compounds 1-92). Conditions: ATP at Km, read-out: JAK3 inhibitory activity (pIC50 class) (converted). The protocol: as §1
Assay [4] concerns the target TYK2 (Homo sapiens (Human), UniProt P29597). The assay can be described thus: Biochemical potency on Tyk2, TR-FRET LANCE Ultra kinase assay (compounds 1-92). The settings on record: ATP at Km, read-out: Tyk2 inhibitory activity (pIC50 class) (converted). The protocol:
as §1

The structures appear in SMILES notation.

Sequence of TYK2 (P29597 whole entry): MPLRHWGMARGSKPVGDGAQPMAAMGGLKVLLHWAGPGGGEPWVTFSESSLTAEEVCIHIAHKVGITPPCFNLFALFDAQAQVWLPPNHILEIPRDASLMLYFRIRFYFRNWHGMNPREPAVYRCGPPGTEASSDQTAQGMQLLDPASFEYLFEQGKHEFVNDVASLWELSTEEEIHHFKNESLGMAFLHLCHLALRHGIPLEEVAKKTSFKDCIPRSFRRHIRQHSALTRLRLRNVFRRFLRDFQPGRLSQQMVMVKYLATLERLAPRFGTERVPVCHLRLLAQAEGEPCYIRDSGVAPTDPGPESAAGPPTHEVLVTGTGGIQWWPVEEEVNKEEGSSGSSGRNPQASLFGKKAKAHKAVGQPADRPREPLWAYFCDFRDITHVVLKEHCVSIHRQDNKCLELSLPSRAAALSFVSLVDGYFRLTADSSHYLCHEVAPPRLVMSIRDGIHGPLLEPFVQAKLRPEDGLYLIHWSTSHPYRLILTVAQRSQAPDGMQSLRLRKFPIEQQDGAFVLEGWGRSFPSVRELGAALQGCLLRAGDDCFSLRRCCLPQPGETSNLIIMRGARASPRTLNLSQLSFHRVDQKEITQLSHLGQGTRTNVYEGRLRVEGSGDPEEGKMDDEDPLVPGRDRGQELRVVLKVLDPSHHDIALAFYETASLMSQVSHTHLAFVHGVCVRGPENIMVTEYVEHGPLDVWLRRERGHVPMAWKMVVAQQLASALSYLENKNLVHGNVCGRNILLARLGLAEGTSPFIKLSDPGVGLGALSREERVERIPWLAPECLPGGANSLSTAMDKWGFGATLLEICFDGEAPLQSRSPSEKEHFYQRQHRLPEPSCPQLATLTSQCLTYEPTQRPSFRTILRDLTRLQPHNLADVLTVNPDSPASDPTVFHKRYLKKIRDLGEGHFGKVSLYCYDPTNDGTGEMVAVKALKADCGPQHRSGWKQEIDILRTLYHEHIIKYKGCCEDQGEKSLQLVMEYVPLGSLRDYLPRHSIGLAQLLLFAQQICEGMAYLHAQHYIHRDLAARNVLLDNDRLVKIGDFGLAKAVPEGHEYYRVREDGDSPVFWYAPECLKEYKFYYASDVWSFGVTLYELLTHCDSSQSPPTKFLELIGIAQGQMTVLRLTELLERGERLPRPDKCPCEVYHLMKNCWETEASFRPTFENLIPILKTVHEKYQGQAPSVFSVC
Sequence of JAK 3 (P52333 whole entry): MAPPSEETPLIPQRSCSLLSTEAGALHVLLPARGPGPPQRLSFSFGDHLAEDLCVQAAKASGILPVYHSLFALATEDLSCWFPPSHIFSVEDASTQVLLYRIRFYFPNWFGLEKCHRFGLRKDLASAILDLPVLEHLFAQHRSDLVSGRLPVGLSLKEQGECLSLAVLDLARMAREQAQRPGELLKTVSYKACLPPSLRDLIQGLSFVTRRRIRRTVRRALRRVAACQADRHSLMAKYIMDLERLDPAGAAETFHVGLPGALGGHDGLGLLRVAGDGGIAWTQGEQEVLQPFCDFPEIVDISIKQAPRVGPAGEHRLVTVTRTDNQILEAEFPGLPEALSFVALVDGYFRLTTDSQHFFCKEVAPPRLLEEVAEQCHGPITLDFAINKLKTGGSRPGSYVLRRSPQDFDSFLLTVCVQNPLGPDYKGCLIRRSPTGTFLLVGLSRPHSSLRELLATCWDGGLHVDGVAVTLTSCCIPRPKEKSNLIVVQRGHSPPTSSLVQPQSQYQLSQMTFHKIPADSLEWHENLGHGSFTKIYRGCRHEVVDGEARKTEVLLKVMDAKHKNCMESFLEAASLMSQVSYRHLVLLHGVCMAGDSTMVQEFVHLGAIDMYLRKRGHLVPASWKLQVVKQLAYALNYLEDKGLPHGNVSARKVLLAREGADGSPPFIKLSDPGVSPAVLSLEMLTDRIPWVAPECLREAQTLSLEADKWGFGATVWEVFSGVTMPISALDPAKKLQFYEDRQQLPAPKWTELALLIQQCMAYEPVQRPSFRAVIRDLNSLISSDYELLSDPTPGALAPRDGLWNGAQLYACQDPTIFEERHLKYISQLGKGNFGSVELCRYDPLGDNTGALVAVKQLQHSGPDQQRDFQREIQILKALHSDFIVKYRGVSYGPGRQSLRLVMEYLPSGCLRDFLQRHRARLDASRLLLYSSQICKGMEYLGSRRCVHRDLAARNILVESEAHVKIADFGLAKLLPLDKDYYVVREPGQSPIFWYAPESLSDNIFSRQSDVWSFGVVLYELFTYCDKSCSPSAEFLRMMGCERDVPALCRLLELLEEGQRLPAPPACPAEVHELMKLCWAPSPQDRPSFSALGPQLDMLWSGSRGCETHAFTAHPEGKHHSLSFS
Sequence of JAK 1 (P23458 whole entry, canonical isoform): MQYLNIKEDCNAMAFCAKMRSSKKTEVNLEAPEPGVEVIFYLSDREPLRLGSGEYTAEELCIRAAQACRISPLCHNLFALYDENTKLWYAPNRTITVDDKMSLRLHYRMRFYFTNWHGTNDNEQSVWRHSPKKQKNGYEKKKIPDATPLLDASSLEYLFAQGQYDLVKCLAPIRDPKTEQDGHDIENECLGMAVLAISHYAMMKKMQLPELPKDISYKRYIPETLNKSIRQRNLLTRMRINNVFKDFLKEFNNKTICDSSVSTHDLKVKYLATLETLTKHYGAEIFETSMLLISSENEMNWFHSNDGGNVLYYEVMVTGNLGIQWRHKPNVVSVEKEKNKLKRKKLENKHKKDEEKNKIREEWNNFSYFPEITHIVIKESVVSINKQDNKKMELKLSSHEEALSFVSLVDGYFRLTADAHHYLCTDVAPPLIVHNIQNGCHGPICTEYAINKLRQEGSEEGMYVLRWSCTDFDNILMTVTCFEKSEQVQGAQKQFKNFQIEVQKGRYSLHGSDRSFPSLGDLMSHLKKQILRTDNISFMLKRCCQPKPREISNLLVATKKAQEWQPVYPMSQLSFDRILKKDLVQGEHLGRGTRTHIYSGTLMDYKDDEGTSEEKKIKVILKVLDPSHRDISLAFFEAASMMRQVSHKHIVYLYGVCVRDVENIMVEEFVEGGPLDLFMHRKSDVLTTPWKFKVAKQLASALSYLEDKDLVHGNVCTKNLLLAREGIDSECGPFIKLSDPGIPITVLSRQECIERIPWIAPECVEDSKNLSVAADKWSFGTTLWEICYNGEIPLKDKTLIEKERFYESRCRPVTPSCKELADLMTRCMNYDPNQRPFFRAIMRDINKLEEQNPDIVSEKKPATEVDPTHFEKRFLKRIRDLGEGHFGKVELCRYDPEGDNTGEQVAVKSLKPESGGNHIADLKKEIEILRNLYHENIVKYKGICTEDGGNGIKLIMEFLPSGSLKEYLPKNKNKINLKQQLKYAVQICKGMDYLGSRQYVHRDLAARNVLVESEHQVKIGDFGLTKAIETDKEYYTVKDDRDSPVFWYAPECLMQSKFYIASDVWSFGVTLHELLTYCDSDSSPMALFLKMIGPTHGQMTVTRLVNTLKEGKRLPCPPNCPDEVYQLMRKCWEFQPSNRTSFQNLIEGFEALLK
Sequence of JAK 2 (O60674 whole entry): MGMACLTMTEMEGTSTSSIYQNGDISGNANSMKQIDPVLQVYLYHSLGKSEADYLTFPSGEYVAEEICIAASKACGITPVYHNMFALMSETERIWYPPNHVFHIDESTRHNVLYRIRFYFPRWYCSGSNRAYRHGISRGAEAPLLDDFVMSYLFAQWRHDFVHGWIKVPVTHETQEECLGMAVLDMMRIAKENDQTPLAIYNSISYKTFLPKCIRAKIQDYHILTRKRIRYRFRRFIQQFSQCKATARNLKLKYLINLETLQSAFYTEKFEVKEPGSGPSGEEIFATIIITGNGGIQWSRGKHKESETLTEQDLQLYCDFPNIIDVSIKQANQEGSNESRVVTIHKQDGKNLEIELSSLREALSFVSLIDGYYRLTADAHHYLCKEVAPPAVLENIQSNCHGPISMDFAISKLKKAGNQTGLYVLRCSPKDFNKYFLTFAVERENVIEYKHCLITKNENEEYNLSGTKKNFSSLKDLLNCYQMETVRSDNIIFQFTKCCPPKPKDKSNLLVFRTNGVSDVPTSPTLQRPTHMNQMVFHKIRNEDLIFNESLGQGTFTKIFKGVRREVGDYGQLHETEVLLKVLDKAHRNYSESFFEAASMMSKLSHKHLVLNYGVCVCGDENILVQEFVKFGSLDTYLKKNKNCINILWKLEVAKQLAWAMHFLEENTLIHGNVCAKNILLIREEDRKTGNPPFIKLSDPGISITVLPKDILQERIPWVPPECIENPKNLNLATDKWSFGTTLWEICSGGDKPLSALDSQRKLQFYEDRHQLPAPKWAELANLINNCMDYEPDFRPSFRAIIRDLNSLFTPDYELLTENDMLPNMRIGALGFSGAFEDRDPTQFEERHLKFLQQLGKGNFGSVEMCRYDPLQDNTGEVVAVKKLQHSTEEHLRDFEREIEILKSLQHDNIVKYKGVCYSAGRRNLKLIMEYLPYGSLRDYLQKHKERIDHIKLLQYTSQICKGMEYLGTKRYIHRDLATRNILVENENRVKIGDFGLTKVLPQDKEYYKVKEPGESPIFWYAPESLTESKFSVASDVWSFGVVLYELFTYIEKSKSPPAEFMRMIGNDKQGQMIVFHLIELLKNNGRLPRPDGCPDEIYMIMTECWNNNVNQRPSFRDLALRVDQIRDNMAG

`COc1cc(C#N)ccc1-n1nc(C)c2cnc(-c3cnn4cccnc34)cc21` [Example 15, 3-methoxy-4-(3-methyl-6-(pyrazolo[1,5-a]pyrimidin-3-yl)-1H-pyrazolo[4,3-c]pyridin-1-yl)benzonitrile]: the IC50 in assay [1] was 5.01 to 50.1 nM; in assay [2] it was 5.01 to 50.1 nM; in assay [3], 5.01 to 50.1 nM; in assay [4], over 50.1 nM.

For the compound `CNc1cc(OC)c(-n2nc(C)c3cnc(-c4cnn5cccnc45)cc32)cn1` [Example 16, 4-methoxy-N-methyl-5-(3-methyl-6-(pyrazolo[1,5-a]pyrimidin-3-yl)-1H-pyrazolo[4,3-c]pyridin-1-yl)pyridin-2-amine], the IC50 is 5.01 to 50.1 nM in assay [1], 5.01 to 50.1 nM in assay [2], 5.01 to 50.1 nM in assay [3] and over 50.1 nM in assay [4].

Regarding `COc1cc(N)ccc1-n1nc(C)c2cnc(-c3cnn4cccnc34)cc21` [Example 17, 3-methoxy-4-(3-methyl-6-(pyrazolo[1,5-a]pyrimidin-3-yl)-1H-pyrazolo[4,3-c]pyridin-1-yl)aniline], the IC50 in assay [1] was 5.01 to 50.1 nM; in assay [2], 5.01 to 50.1 nM; in assay [3], 5.01 to 50.1 nM; in assay [4] it was over 50.1 nM.

`CNC(=O)Nc1ccc(-n2nc(C)c3cnc(-c4cnn5cccnc45)cc32)c(OC)c1` [Example 18, 1-(3-methoxy-4-(3-methyl-6-(pyrazolo[1,5-a]pyrimidin-3-yl)-1H-pyrazolo[4,3-c]pyridin-1-yl)phenyl)-3-methylurea]: the IC50 in assay [1] is 5.01 to 50.1 nM; in assay [2], 5.01 to 50.1 nM; in assay [3], 5.01 to 50.1 nM; in assay [4], over 50.1 nM.

In the case of `CNC(=O)c1ccc(-n2nc(C)c3cnc(-c4cnn5cccnc45)cc32)c(OC)c1` [Example 19, 3-methoxy-N-methyl-4-(3-methyl-6-(pyrazolo[1,5-a]pyrimidin-3-yl)-1H-pyrazolo[4,3-c]pyridin-1-yl)benzamide], the IC50 in assay [1], in assay [2], in assay [3] and in assay [4] was over 50.1 nM throughout.

`COc1cc(C(=O)Nc2ccccc2)ccc1-n1nc(C)c2cnc(-c3cnn4cccnc34)cc21` [Example 20, 3-methoxy-4-(3-methyl-6-(pyrazolo[1,5-a]pyrimidin-3-yl)-1H-pyrazolo[4,3-c]pyridin-1-yl)-N-phenylbenzamide]: the IC50 in assay [1] was 5.01 to 50.1 nM; in assay [2], 5.01 to 50.1 nM; in assay [3], 5.01 to 50.1 nM; in assay [4], over 50.1 nM.

For `COc1cc(NS(C)(=O)=O)ccc1-n1nc(NCCCNC(=O)OC(C)(C)C)c2cnc(-c3cnn4cccnc34)cc21` [Example 21, tert-butyl (3-((1-(2-methoxy-4-(methylsulfonamido)phenyl)-6-(pyrazolo[1,5-a]pyrimidin-3-yl)-1H-pyrazolo[4,3-c]pyridin-3-yl)amino)propyl)carbamate], the IC50 was at most 5.01 nM in assay [1], at most 5.01 nM in assay [2], at most 5.01 nM in assay [3] and 5.01 to 50.1 nM in assay [4].

For the compound `COc1cc(NS(C)(=O)=O)ccc1-n1nc(NCCCN(C)C)c2cnc(-c3cnn4cccnc34)cc21` [Example 22, N-(4-(3-((3-(dimethylamino)propyl)amino)-6-(pyrazolo[1,5-a]pyrimidin-3-yl)-1H-pyrazolo[4,3-c]pyridin-1-yl)-3-methoxyphenyl)methanesulfonamide], the IC50 in assay [1] is at most 5.01 nM; in assay [2] it was at most 5.01 nM; in assay [3], at most 5.01 nM; in assay [4] it was 5.01 to 50.1 nM.

With `CNc1nn(-c2ccc(NS(C)(=O)=O)cc2OC)c2cc(-c3cnn4cccnc34)ncc12` [Example 23, N-(3-methoxy-4-(3-(methylamino)-6-(pyrazolo[1,5-a]pyrimidin-3-yl)-1H-pyrazolo[4,3-c]pyridin-1-yl)phenyl)methanesulfonamide], the IC50 was at most 5.01 nM in assay [1], at most 5.01 nM in assay [2], at most 5.01 nM in assay [3] and 5.01 to 50.1 nM in assay [4].

For `COc1cc(NS(C)(=O)=O)ccc1-n1nc(NCCN2CCOCC2)c2cnc(-c3cnn4cccnc34)cc21` [Example 24, N-(3-methoxy-4-(3-((2-morpholinoethyl)amino)-6-(pyrazolo[1,5-a]pyrimidin-3-yl)-1H-pyrazolo[4,3-c]pyridin-1-yl)phenyl)methanesulfonamide], the IC50 in assay [1] was at most 5.01 nM; in assay [2] it was at most 5.01 nM; in assay [3], at most 5.01 nM; in assay [4] it was 5.01 to 50.1 nM.

`O=S(=O)(Nc1ccc(-n2nc(NCCN3CCOCC3)c3cnc(-c4cnn5cccnc45)cc32)c(OC(F)F)c1)C1CC1` [Example 25, N-(3-(difluoromethoxy)-4-(3-((2-morpholinoethyl)amino)-6-(pyrazolo[1,5-a]pyrimidin-3-yl)-1H-pyrazolo[4,3-c]pyridin-1-yl)phenyl)cyclopropanesulfonamide]: the IC50 in assay [1] was 5.01 to 50.1 nM; in assay [2], 5.01 to 50.1 nM; in assay [3] it was at most 5.01 nM; in assay [4], over 50.1 nM.

For the compound `COc1cc(NS(C)(=O)=O)ccc1-n1nc(NCCO)c2cnc(-c3cnn4cccnc34)cc21` [Example 26, N-(4-(3-((2-hydroxyethyl)amino)-6-(pyrazolo[1,5-a]pyrimidin-3-yl)-1H-pyrazolo[4,3-c]pyridin-1-yl)-3-methoxyphenyl)methanesulfonamide], the IC50 was at most 5.01 nM in assay [1], at most 5.01 nM in assay [2], at most 5.01 nM in assay [3] and 5.01 to 50.1 nM in assay [4].

`COCCN1CCC(CNc2nn(-c3ccc(NS(C)(=O)=O)cc3OC)c3cc(-c4cnn5cccnc45)ncc23)CC1` [Example 27, N-(3-methoxy-4-(3-(((1-(2-methoxyethyl)piperidin-4-yl)methyl)amino)-6-(pyrazolo[1,5-a]pyrimidin-3-yl)-1H-pyrazolo[4,3-c]pyridin-1-yl)phenyl)methanesulfonamide]: the IC50 was at most 5.01 nM in assay [1], at most 5.01 nM in assay [2], at most 5.01 nM in assay [3] and 5.01 to 50.1 nM in assay [4].

Take `COc1cc(NS(=O)(=O)C2CC2)cnc1-n1nc(NCCN(C)C)c2cnc(-c3cnn4cccnc34)cc21` [Example 29, N-(6-(3-((2-(dimethylamino)ethyl)amino)-6-(pyrazolo[1,5-a]pyrimidin-3-yl)-1H-pyrazolo[4,3-c]pyridin-1-yl)-5-methoxypyridin-3-yl)cyclopropanesulfonamide]: the IC50 in assay [1] is 5.01 to 50.1 nM; in assay [2], 5.01 to 50.1 nM; in assay [3], 5.01 to 50.1 nM; in assay [4] it was over 50.1 nM.

Regarding `COc1cc(NS(C)(=O)=O)ccc1-n1nc(NCCN2C3CCC2COC3)c2cnc(-c3cnn4cccnc34)cc21` [Example 30, N-(4-(3-((2-(3-oxa-8-azabicyclo[3.2.1]octan-8-yl)ethyl)amino)-6-(pyrazolo[1,5-a]pyrimidin-3-yl)-1H-pyrazolo[4,3-c]pyridin-1-yl)-3-methoxyphenyl)methanesulfonamide], the IC50 is at most 5.01 nM in assay [1], at most 5.01 nM in assay [2], at most 5.01 nM in assay [3] and 5.01 to 50.1 nM in assay [4].

Take `COc1cc(NS(C)(=O)=O)ccc1-n1nc(NCCN(C)C)c2cnc(-c3cnn4cccnc34)cc21` [Example 31, N-(4-(3-((2-(dimethylamino)ethyl)amino)-6-(pyrazolo[1,5-a]pyrimidin-3-yl)-1H-pyrazolo[4,3-c]pyridin-1-yl)-3-methoxyphenyl)methanesulfonamide]: the IC50 in assay [1] is at most 5.01 nM; in assay [2] it was at most 5.01 nM; in assay [3], at most 5.01 nM; in assay [4], 5.01 to 50.1 nM.
